Data published in PubChem BioAssay AID179 (DTP/NCI, 2004).
Where “and” joins values, the source holds several entries; their conditions need not be identical. Identical values can stand only once. Calls of active or inactive are those of the source.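 How the source made its calls: active means compounds giving half or more protection of infected cells from virus-caused growth loss, again on retest; inactive means the rest.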

System: CEM cells HIV-1 protection, formazan growth assay
Experiment: NCI AIDS Antiviral Assay
Conditions: for IC50: measured here: growth of uninfected CEM cells
Method in brief: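 Category rules: moderately active means at least 50% protection on retest, and confirmed active means 100% protection reproducibly. The underlying data came from a formazan growth assay in HIV-1-infected CEM cells.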

SMILES | outcome | EC50 | IC50
CCOC(=O)c1nc2cc(C(F)(F)F)ccc2nc1Nc1cc(OC)c(OC)c(OC)c1 | inactive | – | –
COc1ccc(CC2COC(=O)[C@@H]2Cc2ccccc2)cc1OC (stereo partly drawn) | – | > 200 µM | 75.9 µM
CCOC(=O)C(C)(C)C(OP(=S)(OCC)OCC)=C(C)C | – | > 3.09 µM | > 3.09 µM
O=C(CC(C(=O)c1ccoc1)c1ccco1)c1ccco1 (stereo not drawn) | – | > 200 µM | 151 µM
CCCCOC(C)(C)/C=C/C(O)[C@](C)(O)[C@H]1[C@H](O)C[C@@]2(C)[C@@H]3CCc4c(cc(OC5OC(CO)C(O)C(O)C5O)c(O)c4C)C3(C)C(=O)C[C@]12C (stereo partly drawn) | – | > 200 µM | > 200 µM
Cc1ccc(NC(=O)C(=O)CC(=O)c2ccccc2)cc1C | – | > 4.9 µM | > 4.9 µM
c1ccc2c3[nH]c(c2c1)=Nc1ccc(cc1)-c1nc2ccc(cc2o1)N=c1[nH]c(c2ccccc12)=Nc1ccc2nc(oc2c1)-c1ccc(cc1)N=3 | – | > 200 µM | 37.2 µM
N#CCCN(CCC#N)c1ccc(/C=C2\N=C(c3ccccc3)N(c3ccccc3)C2=O)cc1 | – | > 200 µM | 7.76 µM
COI1NC(=O)c2ccccc21 | – | 17.4 µM | 295 µM
CCSC(CCC(NC(C)=O)(C(=O)O)C(=O)O)SCC | – | > 200 µM | > 200 µM
COC(=O)CC1NC(=O)[C@]1(C)[C@H](C)O (stereo partly drawn) | – | > 1230 µM | > 1230 µM
COC1OC2=CCC3C(=O)NC(=O)C3C2[C@H](OC)C1OC (stereo partly drawn) | inactive | – | –
COC(=O)C(CCS(=O)(=O)CC(=O)C(=O)Nc1cccc(C(C)=O)c1)C(=O)OC | inactive | – | –
CC1(C)CC(=O)C2=C(C1)Nc1ccccc1NC2c1ccc([N+](=O)[O-])cc1 (stereo not drawn) | – | > 200 µM | 29.5 µM
O=C(/C=C/c1ccc(O)cc1)CC(=O)/C=C/c1ccc(O)cc1 | – | > 200 µM | 9.55 µM
CCCCCCCCCCC(C)CCCCCCC(=O)OCC(COP(=O)([O-])OCC[N+](C)(C)C)OC(=O)CCCCCCC(C)CCCCCCCCCC (stereo not drawn) | inactive | – | –
CC(O)c1ccc2c(c1)C(O)C[C@H]1[C@](C)(CO)CCC[C@]21C (stereo partly drawn) | – | > 200 µM | 141 µM
CN(C)CC/C(=N\Nc1c(Cl)cccc1Cl)c1ccccc1 | inactive | – | –
CN=S(=O)(C[C@]1(O)CC2OC1C1OC(C)(C)OC21)c1ccccc1 (stereo partly drawn) | – | > 708 µM | > 708 µM
OCC1(C(F)(F)F)OC(n2cncn2)CC1O (stereo not drawn) | – | > 200 µM | > 200 µM
CC1=N/C(=C\c2cccc3ccccc23)C(=O)O1 | – | > 11.5 µM | > 11.5 µM
c1ccc(CN2CCC3(CC2)SSC2(CCN(Cc4ccccc4)CC2)SS3)cc1 | – | > 100 µM | 64.6 µM

SMILES | outcome | EC50 | IC50
SCCN1CCCN(CCS)CCC1 | – | > 200 µM | 135 µM
CC(C)(C)C(=O)C(C#N)C(=O)C(C)(C)C | – | > 200 µM | > 200 µM
CCOC(=O)C=C1CCC2(CC1)OCCO2 | – | > 251 µM | > 251 µM
CC(=O)CC(C)=O.CC(=O)CC(C)=O.CC(=O)CC(C)=O.CC(=O)CC(C)=O.[Zr] | inactive | – | –
c1ccc(-n2cnnc2-c2nsc3ccccc23)cc1 | – | > 93.3 µM | > 93.3 µM
COC(=O)[C@@H](Cc1ccccc1)NNC(=O)OC(C)(C)C | – | > 851 µM | 437 µM
Cn1c2ccccc2c2c3c(ccc21)C(=O)N(c1ccccc1)C3=O | – | > 93.3 µM | 60.3 µM
CC(CC(=O)N(C)[C@H](C[C@@H](C)C(Cl)(Cl)Cl)c1nccs1)C(Cl)Cl (stereo partly drawn) | inactive | – | –
Cc1ccc(S(=O)(=O)N2CCNCCN(S(=O)(=O)c3ccc(C)cc3)CCN(S(=O)(=O)c3ccc(C)cc3)CC2)cc1 | – | > 200 µM | > 200 µM
O=Cc1ccccc1CCn1c(=O)c2cc3c(=O)n(CCc4ccccc4C=O)c(=O)c3cc2c1=O | – | > 10.7 µM | > 10.7 µM
CCC1(O)CC2CC(=O)OC2C1O (stereo not drawn) | – | > 200 µM | > 200 µM
CCOC(=O)C1Oc2ccc([N+](=O)[O-])cc2C1(C)O (stereo not drawn) | inactive | – | –
C/C(=C\C(=O)O)C(=O)N(C)c1ccccc1I | – | > 200 µM | > 200 µM
Cc1cc(=O)n2c(nc3cc(C)c(C)cc32)s1 | – | > 200 µM | > 200 µM
NS(=O)(=O)c1nnc(/N=C(/CCC(=O)O)C(=O)O)s1 | – | > 200 µM | > 200 µM
COc1c(Cl)cc(C(=CCC(=O)N[C@@H]2CC[C@@]3(C)[C@@H](CC[C@@H]4[C@@H]3CC[C@]3(C)[C@@H]([C@H](C)CCCC(C)C)CC[C@@H]43)C2)c2cc(Cl)c(OC)c(C(=O)O)c2)cc1C(=O)O | – | > 200 µM | 10.2 µM
CC12CCC(=O)N1c1cncnc1N2 (stereo not drawn) | – | > 1320 µM | > 1320 µM
CN1CCCC1c1cccnc1 (stereo not drawn) | – | 77.6 µM | > 200 µM
CC1CC2C3CC(F)C4=CC(=O)C=CC4(C)C3(F)C(O)CC2(C)C1(O)C(=O)CO (stereo not drawn) | inactive | – | –
OC(c1ccc2c(c1)OCO2)c1ccc2c(c1)OCO2 | – | > 200 µM | 178 µM
CC(=O)/C(=C/N1CCNC1=S)C(=O)Nc1ccc([N+](=O)[O-])cc1 | – | > 200 µM | 43.7 µM
C=C(C)C(CC=C(C)C)CC12CC(CC=C(C)C)C(C)(C)C(CC=C(C)C)(C(=O)C(Cc3ccc(O)c(O)c3)=C1O)C2=O (stereo not drawn) | – | > 200 µM | 158 µM

SMILES | outcome | EC50 | IC50
CCCCCCCCCCCCCCC[C@@H](O)C[N+](C)(C)CCO | – | > 200 µM | 2.82 µM
COc1ccc(C2C3=C(COC3=O)OC(C)(C)Oc3cc4c(cc32)OCO4)cc1 (stereo not drawn) | – | > 200 µM | 13.8 µM
Clc1ccc(C2C3COc4ccccc4C3=NN2c2ccccc2)cc1 (stereo not drawn) | – | > 151 µM | 1.95 µM
CN(C)C(=S)SSSSC(=S)N(C)C | – | > 2 µM | 0.525 µM
Cc1nonc1NC(=O)OCc1ccccc1 | – | > 112 µM | > 112 µM
COC(=O)C(=C\Sc1ccccc1)/C=C/C(=O)OC(C)(C)C | inactive | – | –
O=C(O)CN(c1ccccc1)S(=O)(=O)c1cccc([N+](=O)[O-])c1 | inactive | – | –
Cn1c(SSc2ccc(-c3cccnc3)n2C)ccc1-c1cccnc1 | – | > 200 µM | 1.86 µM and 2.45 µM
C[C@]12OC(=O)[C@]3(O)CC[C@H]4[C@@H](C[C@@H](O)[C@@]5(Cl)CC=CC(=O)[C@]45C)[C@]45OCC6C(=O)O[C@@H]1C[C@@]6(C)[C@H](C4=O)[C@@]32O5 (stereo partly drawn) | – | > 2 µM | 0.871 µM
CCSc1nc2sc(C)c(C)c2c(=O)n1-c1ccc(C(=O)O)cc1 | – | > 200 µM | > 200 µM
NNc1n[nH]c(=S)n1N | – | > 200 µM | > 200 µM
CC(Oc1ccc(OCC2CCCCC2)cc1)C(=O)O (stereo not drawn) | – | > 468 µM | 457 µM
CC(C)c1ccc(S(=O)(=O)c2ccc([N+](=O)[O-])cc2[N+](=O)[O-])cc1 | – | > 200 µM | 0.851 µM
CCOC(=O)COc1ccc(OCC(=O)OCC)c2c1C(=O)CCCC2=O | inactive | – | –
C=C(C)C(O)C(OCC)c1c(OC)ccc2ccc(=O)oc12 (stereo not drawn) | – | > 200 µM | > 200 µM
O=C1OC(c2cccc(C(F)(F)F)c2)(c2cccc(C(F)(F)F)c2)c2ccc3ccccc3c21 | inactive | – | –
Cc1nc(-c2nc(C)c(C(=O)/C=C/c3ccc(N(C)C)cc3)s2)sc1C(=O)/C=C/c1ccc(N(C)C)cc1 | – | > 34.7 µM | > 34.7 µM
S=c1nc2[nH]c3ccc(Br)cc3c2n[nH]1 | – | > 200 µM | 27.5 µM
O=C(OCc1ccccc1)c1ccccc1-c1c2ccc(=O)cc-2oc2cc(OCc3ccccc3)ccc12 | – | > 5.13 µM | > 5.13 µM
O=C1Nc2ccccc2NC(=O)C1(O)O | – | > 200 µM | > 200 µM
CC(Cl)(/C=C/Cl)C(Cl)/C=C/C(Cl)(CCl)CBr (stereo not drawn) | inactive | – | –
COc1ccc2cc(C(=O)NCCCNC(=O)c3ccc4c(OC)c(OC)ccc4c3)ccc2c1OC | – | > 200 µM | > 200 µM

SMILES | outcome | EC50 | IC50
Nc1c(Cl)cc(Cl)cc1C(=O)O | – | > 200 µM | 195 µM
O=c1cc2c(n[nH]1)CCCC2 | – | > 708 µM | > 708 µM
COC(=O)C1C2COc3ccccc3C2=NC1c1ccc([N+](=O)[O-])cc1 (stereo not drawn) | – | > 100 µM | 13.8 µM
NS(=O)(=O)c1ccc(NNc2c3ccccc3nc3c(C(=O)Nc4ccc(S(N)(=O)=O)cc4)cccc23)cc1 | – | > 200 µM | 10.5 µM
C=CCOC(OCC=C)/C(Br)=C/C | inactive | – | –
O=[N+]([O-])/C(C(Cl)=C(Cl)Cl)=C(/Cl)Sc1ccccc1 | – | > 200 µM | 1.23 µM
Cn1ccc2[nH]c(=O)[nH]c(=S)c21 | – | > 200 µM | > 200 µM
CC(SSc1ccc(C(C)(C)C)cc1)c1ccccc1 (stereo not drawn) | – | > 200 µM | 8.51 µM
CC1(C)OC2OC(COC(=S)SSC(=S)OCC3OC4OC(C)(C)OC4C4OC(C)(C)OC34)C3OC(C)(C)OC3C2O1 (stereo not drawn) | – | > 200 µM | 5.62 µM
CN1C2C=CC(=O)C1C1C(=O)N(c3ccccc3)C(=O)C12 (stereo not drawn) | – | > 891 µM | 5.25 µM
COC1CC2(C[Si](C)(C)C)OC(=O)OC2C(C)O1 (stereo not drawn) | inactive | – | –
COc1cccc(C=C2C(=O)NC(=O)NC2=O)c1 | – | > 145 µM | > 145 µM
COc1cccc2nc3cc(C)c(C)cc3nc12 | – | > 30.2 µM | > 30.2 µM
C1=C2/CC[C@H](Sc3ccccc3)C2C2(CCCCC/1)OCCO2 (stereo partly drawn) | – | > 200 µM | 38.9 µM
Nc1n[n+]([O-])c2cnccc2[n+]1[O-] | – | > 200 µM | 70.8 µM
CSC(=NCCCCN=C(NS(=O)(=O)c1ccc(Cl)cc1)SC)NS(=O)(=O)c1ccc(Cl)cc1 | – | > 200 µM | > 200 µM
CCOP(=O)(OCC)C(=C1C=C(C(C)(C)C)C(=O)C(C(C)(C)C)=C1)P(=O)(OCC)OCC | – | > 200 µM | 0.933 µM
Cc1ccc(OC(=O)N2C/C(=C\c3ccccc3)C(=O)/C(=C/c3ccccc3)C2)cc1 | inactive | – | –
O=C(NCCCCCCNC(=O)c1cc(-c2ccccc2)nc2ccccc12)c1cc(-c2ccccc2)nc2ccccc12 | – | > 200 µM | > 200 µM
CCc1nnc2sc(=S)[nH]n12 | inactive | – | –
CCn1c(=O)c2c3ccc(O)cc3oc2c2ccc(O)cc21 | – | > 200 µM | 89.1 µM
O=c1[nH]c(=O)n(C2OC(CO)C(O)C2O)cc1NN=NCc1ccccc1 (stereo not drawn) | – | > 182 µM | > 182 µM
